Where “and” joins values, the source holds several entries; their conditions need not be identical. Equal entries are not always repeated. Where two headings read alike, the source gives them in different places.
Tests used:
P388 leukemia = conditions: for ILS (maximum increase in lifespan): ip P388 leukemia mice, ip days 1-5, slash-separated figures are separate experiments
in vivo = conditions: mouse, ip
[1] = test system: M5076 reticulum cell sarcoma; experiment: ip M5076 reticulum cell sarcoma assay in mice; conditions: for ILS max (maximum increase in lifespan) / MTD (maximally tolerated dose): Table C, ip qD × 10; for ILS max (maximum increase in lifespan): ip M5076 sarcoma mice, slash = separate experiments, compound 2: seven experiments; for MTD (maximally tolerated dose): B6D2F1 female mice; for activity in the ip M5076 reticulum cell sarcoma assay: in words, based on Tables C and D
Protocol: Another chemosensitive tumor model is intraperitoneally (ip) implanted M5076 reticulum cell sarcoma in mice. In this system B6D2F1 female mice are inoculated with 0.5 ml of a 10 percent weight:volume (w:v) brei of M5076 prepared from pooled subcutaneous (sc) tumors excised at about 21 days from c57B1/6 donor mice. Drugs are administered ip. Daily treatment is begun 24 hours after implantation and is continued for ten days. The treatment regimen for M5076 is more prolonged than for P388 because of the slower growth rate and longer control survival time of the M5076 tumor.

[2] = Table B, B6D2F1 female mice, ip qD × 5
[3] = Table B, compound 2: 35 experiments

Molecule	MTD (maximally tolerated dose) (P388 leukemia; [2])	ILS (maximum increase in lifespan) (P388 leukemia; [3])	other results
CC(C(C)[PH]([Au][Cl])(c1ccccc1)c1ccccc1)[PH]([Au][Cl])(c1ccccc1)c1ccccc1 [Compound 11, μ-[(-) (2S,3S)-2,3-Bis(Diphenylphosphino)Butane]Bis[Chlorogold(I)]]			MTD (maximally tolerated dose) (P388 leukemia; mouse, in vivo, ip): 6 mg/kg
Fc1ccc([PH](CC[PH]([Au][Cl])(c2ccc(F)cc2)c2ccc(F)cc2)([Au][Cl])c2ccc(F)cc2)cc1 [Compound 25, μ-[1,2-Bis[Bis(4-Fluorophenyl)Phosphino]Ethane]Bis-[Chlorogold (I)]]	8 mg/kg	80% and 75%	
[2H]c1c([2H])c([2H])c([PH](CC[PH]([Au][Cl])(c2c([2H])c([2H])c([2H])c([2H])c2[2H])c2c([2H])c([2H])c([2H])c([2H])c2[2H])([Au][Cl])c2c([2H])c([2H])c([2H])c([2H])c2[2H])c([2H])c1[2H] [Compound 31, μ-[1,2-Bis[di(phenyl-d5)phosphino]ethane]bis-[chlorogold(I)]]	6 mg/kg	40% and 65%	
O=[N+]([O-])[O][Ag][PH](CC[PH]([Ag][O][N+](=O)[O-])(c1ccccc1)c1ccccc1)(c1ccccc1)c1ccccc1 [Compound 13, μ-[1,2-Bis(Diphenylphosphino)Ethane]Bis[Nitratosilver(I)]]	6 mg/kg	45% and 30%	
Fc1cccc(P(CCP(c2cccc(F)c2)c2cccc(F)c2)c2cccc(F)c2)c1 [Compound 46, 1,2-Ethanediyl-bis[bis(3-fluorophenyl)phosphine]]			MTD (in vivo): 32 mg/kg
c1ccc(P(CCCCCP(c2ccccc2)c2ccccc2)c2ccccc2)cc1 [Compound 39, Bis (1,5-diphenylphosphino)pentane]			MTD (in vivo): 8 mg/kg
Fc1cccc([PH](CC[PH]([Au][Cl])(c2cccc(F)c2)c2cccc(F)c2)([Au][Cl])c2cccc(F)c2)c1 [Compound 26, μ-[1,2-Bis[Bis(3-Fluorophenyl)Phosphino]Ethane]Bis [Chlorogold (I)]]	8 mg/kg	60% and 55%	
FC(F)(F)[S][Au][PH](CC[PH]([Au][S]C(F)(F)F)(c1ccccc1)c1ccccc1)(c1ccccc1)c1ccccc1 [Compound 18, μ-[1,2-Bis(diphenylphosphino)ethane]Bis[trifluoromethyl-thiogold(I)]]			ILS max (maximum increase in lifespan) [1]: 70%
CSc1ccc(P(CCP(c2ccc(SC)cc2)c2ccc(SC)cc2)c2ccc(SC)cc2)cc1 [Compound 48, 1,2-Ethanediyl-Bis[Bis(4-methylthiophenyl)phosphine]]			MTD (in vivo): 32 mg/kg
N#C[S][Au][PH](CC[PH]([Au][S]C#N)(c1ccccc1)c1ccccc1)(c1ccccc1)c1ccccc1 [Compound 16]	6 mg/kg	36% and 62% and 45%	MTD (maximally tolerated dose) [1]: 5 mg/kg; ILS max (maximum increase in lifespan) [1]: 52%; activity in the ip M5076 reticulum cell sarcoma assay [1]: good activity
CSc1ccccc1P(CCP(c1ccccc1SC)c1ccccc1SC)c1ccccc1SC [Compound 47, 1,2-ethanediyl-bis[bis(2-methylthiophenyl)phosphine]]			MTD (in vivo): 64 mg/kg
CCP(CC)CCP(CC)CC [Compound 50]			MTD (maximally tolerated dose) (P388 leukemia; Table BI, B6D2F1 female mice, ip qD × 5): 128 mg/kg; ILS (maximum increase in lifespan) (P388 leukemia; Table BI, compound 33: 41 experiments): 55%
CC(C(C)P(c1ccccc1)c1ccccc1)P(c1ccccc1)c1ccccc1 (single isomer, unassigned; (-)) [Compound 42]			MTD (in vivo): 48 mg/kg
C(=C\P(c1ccccc1)c1ccccc1)/P(c1ccccc1)c1ccccc1 [Compound 41, Trans-bis(1,2-diphenylphosphino)ethylene]			MTD (in vivo): 128 mg/kg
Fc1c(F)c(F)c([PH](CC[PH]([Au][Cl])(c2c(F)c(F)c(F)c(F)c2F)c2c(F)c(F)c(F)c(F)c2F)([Au][Cl])c2c(F)c(F)c(F)c(F)c2F)c(F)c1F [Compound 27, μ-[1,2-Bis[bis(2,3,4,5,6-pentafluorophenyl)phosphine]ethane]-bis[chlorogold(I)]]	16 mg/kg	30% and 25%	
FC(F)(F)c1ccc([PH](CC[PH]([Au][Cl])(c2ccc(C(F)(F)F)cc2)c2ccc(C(F)(F)F)cc2)([Au][Cl])c2ccc(C(F)(F)F)cc2)cc1 [Compound 29]	8 mg/kg	37% and 44%	

Molecule	MTD (maximally tolerated dose) (P388 leukemia; [2])	ILS (maximum increase in lifespan) (P388 leukemia; [3])	other results
[Cl][Au][PH](C=C[PH]([Au][Cl])(c1ccccc1)c1ccccc1)(c1ccccc1)c1ccccc1 [Compound 8, μ-[Trans-1,2-Bis(Diphenylphosphino)Ethylene]Bis[Chlorogold(I)]]	24 mg/kg	33% and 36%	
[Cl][Cu][PH](CC[PH]([Cu][Cl])(c1ccccc1)c1ccccc1)(c1ccccc1)c1ccccc1 [Compound 14, μ-[1,2-Bis(Diphenylphosphino)Ethane]Bis[Chlorocopper(I)]]	4 mg/kg	65% and 79%	
CC(=O)[O][Au][PH](CC[PH]([Au][O]C(C)=O)(c1ccccc1)c1ccccc1)(c1ccccc1)c1ccccc1 [Compound 17, μ-[1,2-Bis(Diphenylphosphino)Ethane]Bis[Acetatogold(I)]]	4 mg/kg	73% and 64%	MTD (maximally tolerated dose) [1]: 4 mg/kg; ILS max (maximum increase in lifespan) [1]: 54% and 67%; activity in the ip M5076 reticulum cell sarcoma assay [1]: good activity
C[C@H](C[PH]([Au][Cl])(c1ccccc1)c1ccccc1)[PH]([Au][Cl])(c1ccccc1)c1ccccc1 [Compound 10, μ-[(R)-(+)-1,2Bis(Diphenylphosphino)Propane]Bis[Chlorogold(I)]]	6 mg/kg	50% and 25%	
CCOC(=O)C(N)C[S][Au][PH](CC[PH]([Au][S]CC(N)C(=O)OCC)(c1ccccc1)c1ccccc1)(c1ccccc1)c1ccccc1 (centres unmarked) [Compound 20]	6 mg/kg	50% and 56%	
c1ccc(P(CCCCP(c2ccccc2)c2ccccc2)c2ccccc2)cc1 [Compound 38, Bis(1,4-diphenylphosphino)butane]			MTD (in vivo): 28 mg/kg
μ-[1,2-Bis[Bis(2-Methylthiophenyl)Phosphino]Ethane]Bis[Chlorogold(I)] [Compound 28]	8 mg/kg		
CCP(CC)CCP(CC)CC [Compound 49]			MTD (in vivo): 64 mg/kg
CCOC(=S)[S][Au][PH](CC(O)[PH]([Au][S]C(=S)OCC)(c1ccccc1)c1ccccc1)(c1ccccc1)c1ccccc1 (centres unmarked) [Compound 19, μ-[1,2-Bis(Diphenylphosphino)Ethanol]Bis[O-Ethyldithiocarbonatogold(I)]]	6 mg/kg		
[Cl][Au][PH](CC[PH](Cc1ccccc1)(Cc1ccccc1)[Au][Cl])(Cc1ccccc1)Cc1ccccc1 [Compound 23, μ-[1,2-Bis(Dibenzylphosphino)Ethane]Bis[Chlorogold (I)]]	4 mg/kg	45% and 30%	MTD (maximally tolerated dose) [1]: 4 mg/kg; ILS max (maximum increase in lifespan) [1]: 40%
C1CCC(P(CCP(C2CCCCC2)C2CCCCC2)C2CCCCC2)CC1 [Compound 44, 1,2-bis(dicyclohexylphosphino)ethane]			MTD (in vivo): 32 mg/kg
CC[PH](CC)(CC[PH]([Au][Cl])(c1ccccc1)c1ccccc1)[Au][Cl] [Compound 21, μ-[1-Diethylphosphino-2-Diphenylphosphino-Ethane]bis-[Chlorogold(I)]]	16 mg/kg	30%	
CSc1ccc([PH](CC[PH]([Au][Cl])(c2ccc(SC)cc2)c2ccc(SC)cc2)([Au][Cl])c2ccc(SC)cc2)cc1 [Compound 30, μ-[1,2-Bis[Bis(4-Methylthiophenyl)Phosphino]ethane]-Bis[chlorogold(I)]]	8 mg/kg	37% and 65%	
CC(C[PH]([Au][Cl])(c1ccccc1)c1ccccc1)[PH]([Au][Cl])(c1ccccc1)c1ccccc1 (centres unmarked) [Compound 9, μ-[1,2-Bis(Diphenylphosphino)Propane]Bis[Chlorogold(I)]]	6 mg/kg	45% and 60% and 35%	MTD (maximally tolerated dose) [1]: 5 mg/kg; ILS max (maximum increase in lifespan) [1]: 98%; activity in the ip M5076 reticulum cell sarcoma assay [1]: good activity
COc1ccc([PH](CC[PH]([Au][Cl])(c2ccc(OC)cc2)c2ccc(OC)cc2)([Au][Cl])c2ccc(OC)cc2)cc1 [Compound 24, μ-[1,2-Bis[Bis(4-methoxyphenyl)phosphino]ethanel]bis[chlorogold(I)]]	8 mg/kg		

Source: patent US4857549A, “Antitumor compounds” (priority 1988, dated 1989)
